The text below walks through data of patent US9943525B2, “Composition for reducing cell senescence comprising Rho-kinase inhibitor and use thereof” (Samsung Electronics Co., Ltd., priority 2014, dated 2018).

The subject of the assay is full-thickness punch-biopsy wounds on the dorsal skin of old (19 months old) male C57BL/6J mice. The assay is described as follows: cutaneous wound healing assay in aged mice. The note with it: 0.5 mL 10 μM in 30% Pluronic gel applied to wounds every day, FIG. 23. The assay is classed as in vivo, mouse. On the procedure:
To further test whether ROCK inhibitor can promote cutaneous wound healing in old (19 months old) male mice (C57BL/6J mice), four full-thickness punch-biopsy wounds (8 mm in diameter)(four wound sites/mouse, five mice/group) were created on the dorsal skin of mouse, 0.5 mL 10 μM Y-27632 in 30% Pluronic gel (Pluronic F-127 Sigma, P2443-1KG) was applied to wounds every day, and then covered the wounds with Telfa sponges (Kendall Health Care, Mansfield, Mass., USA). DMSO was used as a control. All animal studies were reviewed and approved by the […] Animal Care and Use Committee of SKKU School of Medicine (SUSM). SUSM is an Association for Assessment and Accreditation of Laboratory Animal Care international accredited facility and abides by the Institute for Laboratory Animal Research guide. Wounds were photographed for 10 days. Immunohistochemistry analyses were performed on 5 μm paraffin embedded sections as described previously (Lin et. al., 2004. Developmental Biology 270, 474-486). Primary antibodies used for immunohistochemistry were mouse anti-α-smooth muscle actin (Sigma, F3777-2ML, 1:500), and mouse anti-PCNA (Santa Cruz Biotechnology, SC-56, 1:500). Secondary antibodies used for immunohistochemistry were EnVisionTM Detection System (DAKO, […]). […]

In the case of `C[C@@H](N)[C@H]1CC[C@H](C(=O)Nc2ccncc2)CC1` [Y-27632, (1R,4R)-4-((R)-1-aminoethyl)-N-(pyridin-4-yl)cyclohexanecarboxamide], the “wound healing (wound appearance)” value (day 10, DMSO-treated wounds still showed remnants of scabs) is listed as “near completion”. Further, where the note is “early points (days 3), vs DMSO, P<0.01”, the “wound healing process (wound size)” value was “markedly accelerated”.
